The target of one assay is T1, α-synuclein (Homo sapiens, UniProt P37840).
T1 construct: gene SNCA
Description: ThT seeded aggregation kinetics; half-time increased […] times at […] molar equivalents; weakest, not significant at […] equivalents. The format is biochemical.

Another assay has as its target T2, α-synuclein (fibrils) (Homo sapiens, UniProt P37840).
T2 construct: gene SNCA; recombinant human α-synuclein, preformed amyloid fibrils
The assay can be described thus: fluorescence polarization with fibrils (Kd in monomer equivalents); supported by mass spectrometry pull-down, fluorescence colocalization and aggregation kinetics. The format is binding. For orientation: In fluorescence polarisation assays a small probe gives low polarisation when free and higher when bound to something large.

Data on two molecules can be found in article PMC9811465, “Structure-Based Discovery of Small-Molecule Inhibitors of the Autocatalytic Proliferation of α-Synuclein Aggregates” (Molecular Pharmaceutics, 2022).

The structures appear in SMILES notation.

Regarding `Cc1nc2ccccn2c1C(=O)NCc1nccnc1-c1ccco1` [A, compound A], the “ThT seeded aggregation kinetics; half-time increased 1.5 times at 10 molar equiv” value at α-synuclein is on record as 1.5 fold increase in half-time (t1/2).
A word on the Kd: it is the free concentration of one partner at which half of the binding sites on the other are occupied at equilibrium, for simple one-to-one binding. Take `Cc1c(OCc2nnn[nH]2)ccc2c1oc(=O)c1ccccc12` [C, compound C]: the Kd on α-synuclein (fibrils) is ~4 µM.
